Test results as given in patent US20060002881A1, “Perfluorocarbon-soluble compounds” (priority 2004, published 2006).

How the values were obtained:
Assay type in all cases: physicochemical
[1] = Solvent solubility of perfluoroalkanamides; set-up: key: S: complete dissolve in the solvent at room temperature; P: precipitation in the solvent; conditions: 3% w/w; for Solubility in Acetone: room temperature
Text: It is clear from the observation that perfluoroalkanamides of the present invention can easily form micelles in acetone at room temperature. With shorter perfluoroalkyl group (i.e., C6F13—), perfluoroalkanamide can dissolve into all tested hydrocarbon solvents at room temperature, but precipitate in fluorocarbon (i.e., CF-76).

[2] = Solubility of C7F15-MPEG in PFC; conditions: decreases with increment of MW of MPEG
[3] = Ternary phase diagram / phase behavior of PFC/water/fluorosurfactant (PFC microemulsion formation)
Text: The formation of PFC-in-water emulsion requires high energy to disperse PFC as surfactant-stabilized microdroplets in aqueous phase; while, for thermodynamic stable PFC microemulsion, two immiscible liquid phases with the aid of a pertinent fluorosurfactant can turn into an optically isotropic solution simply by gentle mixing. Given in FIG. 2, different phase behaviors were created by titering various concentrations of C7F15CONH-MPEG350 surfactant dissolved in water solution with different amounts of PFOB liquid. Since the specific density of PFOB is 1.94 which is larger than the water density, the milky PFOB-in-water emulsion settled down on the bottom of the vial (FIG. 2A). […]
Aqueous solutions containing given quantities of fluorosurfactant were progressively added with PFC and placed in a thermostat water bath set at 25° C. After each addition, the aspect of the solution was recorded, along with number, nature, and approximate volumes of phases. […] Ternary phase diagrams were then plotted to distinguish the boundaries between different phases and used to quantitate the proportion of three components (water, fluorosurfactant, and PFC) forming PFC microemulsion.
The ternary phase diagram given in FIG. 3 was determined by the weight fraction of water, PFOB, and RF-MPEG350. The PFOB microemulsion domain was determined to be the area under the test points symbolized as ▪. […]

Compound | Solubility in CF-76 (3 M) ([1]; > 40° C.) [°C → S] | Solubility in CF-76 (3 M) ([1]; @ RT) | Solubility in Ethanol ([1]; @ RT) | Solubility in Hexane ([1]; @ RT) | Solubility in Acetone [1] | Solubility in Hexane ([1]; > 30° C.) [°C → S] | Solubility in Ethanol ([1]; > 40° C.) [°C → S] | Size of PFC microemulsion domain in ternary phase diagram ([3]; PFOB and ZT85, 25° C.) | Formation of transparent PFC microemulsion ([3]; PFOB or ZT85 / water / fluorosurfactant, 25° C., no co-surfactant) | Solubility in PFOB or ZT85 (rank order) [2]
C7F15CONH-PEG350-OCH3 | – | – | – | – | – | – | – | largest PFC microemulsion region | PFC-in-water microemulsion | C7F15-MPEG350>C7F15-MPEG550>C7F15-MPEG750
C7F15CONH-PEG550-OCH3 | – | – | – | – | – | – | – | – | – | C7F15-MPEG350>C7F15-MPEG550>C7F15-MPEG750
C7F15CONH-PEG750-OCH3 | – | – | – | – | – | – | – | – | – | C7F15-MPEG350>C7F15-MPEG550>C7F15-MPEG750

Further lines, with some results ahead:

Solubility in CF-76 (3 M) ([1]; > 40° C.) [°C → S] | Solubility in CF-76 (3 M) ([1]; @ RT) | Solubility in Ethanol ([1]; @ RT) | Solubility in Hexane ([1]; @ RT) | Solubility in Acetone [1] | Solubility in Hexane ([1]; > 30° C.) [°C → S] | Solubility in Ethanol ([1]; > 40° C.) [°C → S] | Size of PFC microemulsion domain in ternary phase diagram ([3]; PFOB and ZT85, 25° C.) | Formation of transparent PFC microemulsion ([3]; PFOB or ZT85 / water / fluorosurfactant, 25° C., no co-surfactant) | Compound | Solubility in PFOB or ZT85 (rank order) [2]
40 | @ RT → P > | S | S | S | – | – | – | – | CCCCCCCCCCCCNC(=O)C(F)(F)C(F)(F)C(F)(F)C(F)(F)C(F)(F)C(F)(F)F [C6F13CONHC12H25] | –
40 | @ RT → P > | @ RT → P > | @ RT → P > | S | 30 | 40 | – | – | CCCCCCCCCCCCNC(=O)C(F)(F)C(F)(F)C(F)(F)C(F)(F)C(F)(F)C(F)(F)C(F)(F)F [C7F15CONHC12H25] | –
– | S | S | S | S | – | – | – | – | CCCCCCCCNC(=O)C(F)(F)C(F)(F)C(F)(F)C(F)(F)C(F)(F)C(F)(F)C(F)(F)C(F)(F)F [C8F17CONHC8H17] | –
40 | @ RT → P > | @ RT → P > | @ RT → P > | S | 30 | 40 | – | – | CCCCCCCCCCCCNC(=O)C(F)(F)C(F)(F)C(F)(F)C(F)(F)C(F)(F)C(F)(F)C(F)(F)C(F)(F)F [C8F17CONHC12H25] | –
